Laboratory results published in publication PMC5729429, “Gimatecan exerts potent antitumor activity against gastric cancer in vitro and in vivo via AKT and MAPK signaling pathways” (Journal of Translational Medicine, 2017).
Counter-ions that a name gives are not always drawn.

Assays:
Bak, Bcl-2, cleaved PARP = assay: Western blot of Bak, Bcl-2, PARP in GC cells; format: cell-based, human; details: SNU-1 and HGC27
Description: SNU-1, HGC27 and NCI-N87 cells were starved in serum-free medium overnight, exposed to inhibitors for 48 h and harvested at 70–80% confluence. Total protein was extracted from cells or xenograft tissues on ice, using RIPA Lysis Buffer (Beyotime, Shanghai, China) supplemented with complete protease inhibitor and phosphatase inhibitor cocktail (Roche, Basel, Switzerland). Protein concentration was measured using a BCA Protein Assay Kit (Beyotime, Shanghai, China), and 50 μg protein from each sample was separated by 10% SDS-PAGE. After transfer to nitrocellulose membranes (GE Healthcare, Piscataway, NJ), samples were incubated with corresponding primary antibodies diluted in 5% BSA at 4 °C overnight and then with secondary antibodies at room temperature for 1 h. […] Western-blotting bands were quantified and normalized by ImageJ software.
Cells were treated with gimatecan (0–1 µM) and irinotecan (0–1 µM) for 24 h and stained with Annexin V-PE/7-AAD. Sums of percentages of early apoptosis (Q3) and late apoptosis (Q2) were calculated as the total apoptosis ratios. c, d Pro- and anti-apoptotic proteins including Bcl-2, Bak, PARP and cleaved PARP were assessed by western-blotting in SNU-1 and NCI-N87 cells. Western-blotting bands were quantified and normalized by ImageJ. […]

SNU-1 cells = assay: Cell viability assay (CCK-8), SNU-1; format: cell-based; details: Homo sapiens, SNU1, Fig. 1a 48 h exposure, 0–1 µM, read-out: IC50 antiproliferative effect
Description: (§1) Human GC cell lines SNU-1, HGC27 and MGC803 were purchased from Peking Union Medical College, and the NCI-N87 cell line was a gift from You-yong Lv, Ph.D. (Peking University Cancer Hospital and Institute). Cells were cultured in RPMI 1640 medium and Dulbecco’s Modified Eagle Medium (Gibco-BRL, MD, USA), respectively, supplemented with 10% fetal bovine serum (Gibco-BRL), 100 U/ml penicillin (Gibco-BRL) and […] streptomycin (Gibco-BRL). Cells were incubated in a humidified incubator (37 °C) supplemented with 5% CO2.
(§2) SNU-1, HGC27, MGC803 and NCI-N87 cells (5000 cells/well) were seeded in 96-well plates and incubated overnight in complete medium, followed by exposure to gimatecan (0–1 µM) or irinotecan (0–1 µM) for 24, 48, or 72 h. Cell viability was measured using a Cell Counting Kit-8 (Dojindo, Kumamoto, Japan) according to the manufacturer’s instructions. Absorbance at 450 nm was measured using a microplate spectrophotometer. All experiments were repeated at least three times.

HGC27 cells = assay: Cell viability assay (CCK-8), HGC27; format: cell-based; details: Homo sapiens, HGC-27, Fig. S1A 48 h exposure, 0–1 µM, read-out: IC50 antiproliferative effect
Description: as §1, §2

| Structure (SMILES) | Bak, Bcl-2 and PARP protein after treatment (Bak, Bcl-2, cleaved PARP) | IC50 (SNU-1 cells) | IC50 (HGC27 cells) |
| --- | --- | --- | --- |
| CCc1c2c(nc3ccc(OC(=O)N4CCC(N5CCCCC5)CC4)cc13)-c1cc3c(c(=O)n1C2)COC(=O)[C@]3(O)CC [Irinotecan, irinotecan hydrochloride] | apoptosis was not induced | 3250 nM | 152 nM |
| CC[C@@]1(O)C(=O)OCc2c1cc1n(c2=O)Cc2c-1nc1ccccc1c2/C=N/OC(C)(C)C [Gimatecan, 7-t-butoxyiminomethylcamptothecin] | Bak and cleaved PARP expression was increased and Bcl-2 expression was inhibited | 1.95 nM | 1.63 nM |
